Measured values from patent US10632125B2, “MTH1 inhibitors for treatment of inflammatory and autoimmune conditions” (THOMAS HELLEDAYS STIFTELSE FÖR MEDICINSK FORSKNING, priority 2014, dated 2020).
Where two headings read alike, the source gives them in different places.

Target: MTH1 (Homo sapiens, UniProt P36639)
Assay: MTH1 enzymatic assay (malachite green, coupled to pyrophosphatase)
Type: biochemical
Protocol: MTH1 catalyzes the hydrolysis of dGTP to dGMP and PPi. By coupling the reaction to pyrophosphatase added in excess PPi is converted to Pi that can be detected by using the malachite green assay reagent. […] 96-well method: Briefly, the compound to be analyzed is diluted in DMSO in a 1:3 dilution series generating 12 different compound concentrations giving a final DMSO concentration of 1% in the assay well. MTH1 diluted in assay buffer (100 mM Tris-acetate, 40 mM NaCl, 10 mM magnesium acetate, 1 mM DTT and 0.005% Tween 20) fortified with E. coli pyrophosphatase (0.2 U/ml) is added to a final concentration of 6 nM. dGTP diluted in assay buffer is added to a final concentration of 100 μM. The reaction mixture is incubated for 15 minutes at 22° C. To 100 μl reaction mixture, 25 μl Malachite green assay regent (0.095% Malachite green in 17% H2SO4, 1.5% Ammonium molybdate, 0.17% Tween 20) is added, followed by incubation with shaking for 15 minutes at 22° C. The absorbance of the assay plate is read at 630 nm using a Hidex Sense Multilabel plate reader. The IC50 value is determined by fitting a dose response curve to the data points using nonlinear regression analysis and the equation Y=Bottom+(Top-Bottom)/(1+10^((Log IC50−X)*HillSlope)), where Y is the read absorbance at 630 nm and X is log [compound].
384-Well Method: The compounds to be tested are nano-dispensed, in 11 concentrations, directly in assay plates, with a final DMSO concentration <1%. The protocol and the reaction mixture are the same as for the 96-well assay, with a total reaction volume of 50 μl/well to which 10 μl of Malachite green reagent is added. All additions to the assay plates are made with multidrop.

[1] = dGTP 100 μM, MTH1 6 nM, 96- or 384-well format, read-out: IC50

Compound	IC50 [1]	IC50
Nc1nc(NC2CCCCC2)cc(-c2ccccc2)n1 [Example 1, 4-N-cyclohexyl-6-phenylpyrimidine-2,4-diamine]	< 200 nM	–
CCNc1cc(-c2ccccc2)nc(N)n1 [Example 2, 4-N-ethyl-6-phenylpyrimidine-2,4-diamine]	< 200 nM	–
Nc1nc(NC2CCOCC2)cc(-c2ccccc2)n1 [Example 7, 4-N-(oxan-4-yl)-6-phenylpyrimidine-2,4-diamine]	< 200 nM	–
Nc1nc(NC2CC2)cc(-c2ccc(Cl)cc2)n1 [Example 13, 6-(4-chlorophenyl)-4-N-cyclopropylpyrimidine-2,4-diamine]	< 200 nM	–
Nc1nc(NC2CC2)cc(-c2cccc(C(F)(F)F)c2)n1 [Example 16, 4-N-cyclopropyl-6-[3-(trifluoromethyl)phenyl]pyrimidine-2,4-diamine]	< 200 nM	–
Nc1nc(NC2CC2)cc(-c2cccc(Cl)c2)n1 [Example 19, 6-(3-chlorophenyl)-4-N-cyclopropylpyrimidine-2,4-diamine]	< 200 nM	–
CNc1cc(-c2cn(S(=O)(=O)c3ccc(C)cc3)c3ccccc23)nc(N)n1 [Example 23, 4-N-methyl-6-[1-(4-methylbenzenesulfonyl)-1H-indol-3-yl]pyrimidine-2,4-diamine]	< 200 nM	–
CNc1cc(-c2cn(S(=O)(=O)c3ccccc3)c3ccccc23)nc(N)n1 [Example 26, 6-[1-(benzenesulfonyl)-1H-indol-3-yl]-4-N-methylpyrimidine-2,4-diamine]	< 200 nM	–
Cc1ccc(S(=O)(=O)n2cc(-c3cc(NC4CC4)nc(N)n3)c3ccccc32)cc1 [Example 27, 4-N-cyclopropyl-6-[1-(4-methylbenzenesulfonyl)-1H-indol-3-yl]pyrimidine-2,4-diamine]	< 200 nM	–
Nc1nc(NC2CC2)cc(-c2cn(S(=O)(=O)c3ccccc3)c3ccccc23)n1 [Example 28, 6-[1-(benzenesulfonyl)-1H-indol-3-yl]-4-N-cyclopropylpyrimidine-2,4-diamine]	< 200 nM	–
CNc1cc(-c2cn(S(=O)(=O)c3ccccc3)c3ncccc23)nc(N)n1 [Example 29, 6-[1-(benzenesulfonyl)-1H-pyrrolo[2,3-b]pyridin-3-yl]-4-N-methylpyrimidine-2,4-diamine]	< 200 nM	–
CNc1cc(-c2cccc3c2ccn3S(=O)(=O)c2ccccc2)nc(N)n1 [Example 30, 6-[1-(benzenesulfonyl)-1H-indol-4-yl]-4-N-methylpyrimidine-2,4-diamine]	< 200 nM	–
CNc1cc(-c2ccc(OC)cc2)nc(N)n1 [Example 33, 6-(4-methoxyphenyl)-4-N-methylpyrimidine-2,4-diamine]	< 200 nM	–
CNc1cc(-c2cc(C(F)(F)F)cc(C(F)(F)F)c2)nc(N)n1 [Example 34, 6-[3,5-bis(trifluoromethyl)phenyl]-4-N-methylpyrimidine-2,4-diamine]	< 200 nM	–
CNc1cc(-c2cccc(C(F)(F)F)c2)nc(N)n1 [Example 37, 4-N-methyl-6-[3-(trifluoromethyl)phenyl]pyrimidine-2,4-diamine]	< 200 nM	–
CNc1cc(-c2cccc(Cl)c2Cl)nc(N)n1 [Example 38, 6-(2,3-dichlorophenyl)-4-N-methylpyrimidine-2,4-diamine]	–	< 200 nM
CNc1cc(-c2ccc3c(c2)OCO3)nc(N)n1 [Example 39, 6-(2H-1,3-benzodioxol-5-yl)-4-N-methylpyrimidine-2,4-diamine]	< 200 nM	–
CNc1cc(-c2cccc(NC(C)=O)c2)nc(N)n1 [Example 41, N-{3-[2-amino-6-(methylamino)pyrimidin-4-yl]phenyl}acetamide]	< 200 nM	–
CNc1cc(-c2ccc(NC(C)=O)cc2)nc(N)n1 [Example 47, N-{4-[2-amino-6-(methylamino)pyrimidin-4-yl]phenyl}acetamide]	< 200 nM	–
CNc1cc(-c2ccc(OC)nc2)nc(N)n1 [Example 49, 6-(6-methoxypyridin-3-yl)-4-N-methylpyrimidine-2,4-diamine.]	< 200 nM	–
